Source: US10799507B2, “5-(7H-pyrrolo[2,3-d]pyrimidin-4-yl)-5-azaspiro[2.5]octane-8-carboxylic acid derivatives as novel JAK kinase inhibitors” (LEO Pharma A/S, priority 2017, dated 2020)
pEC50: −log10 of the molar value.

What was measured:
Type in all cases: biochemical
JAK1 = JAK1 (Homo sapiens (Human), UniProt P23458); assay: JAK kinase assay (HTRF), JAK1; conditions: catalytic domain, ATP at Km (7 μM)
Procedure: (§1) Human baculovirus-expressed JAK1, 2, 3 and TYK2 were purchased from Carna Biosciences, Inc. All four purified enzymes contain only the catalytic domain. JAK1 (aa 850-1154) and TYK2 (aa 871-1187) are expressed with an N-terminally fused GST-tag, and JAK2 and JAK3 with an N-terminally fused His-tag.
(§2) Inhibition of phosphorylation of a synthetic peptide was measured in an HTRF-based assay using the TK substrate-Biotin from the Cisbio HTRFKinEASE TK kit. First, 2 μl of TK solution (TK substrate-biotin in kinase buffer [1× enzymatic buffer from HTRFKinEASE TK kit, 1 mM DTT]) is added to a plate containing 1 μl prediluted compound (final assay concentration DMSO: 0.75%). Then, 5 μl kinase-ATP mix (prepared in kinase buffer) is added to the wells and the plates are incubated at RT for 20-30 min. For all four kinases a concentration of ATP that corresponded to the Km for ATP was used. The final concentrations of buffers, substrate, kinase and ATP were: JAK1: 50 mM Hepes buffer pH 7.0, 0.01% BSA, 10 mM MgCl2, 1 mM DTT, 7 μM ATP, 50 nM SEB, 1 μM TK Substrate-Biotin and 5 ng JAK1; JAK2: 50 mM Hepes buffer pH 7.0, 0.01% BSA, 5 mM MgCl2, 1 mM DTT, 4 μM ATP, 1 μM TK Substrate-Biotin and 0.1 ng JAK2; JAK3: 50 mM Hepes buffer pH 7.0, 0.01% BSA, 5 mM MgCl2, 1 mM DTT, 2 μM ATP, 1 μM TK Substrate-Biotin and 0.3 ng JAK3; TYK2: 50 mM Hepes buffer pH 7.0, 0.01% BSA, 5 mM MgCl2, 1 mM DTT, 13 μM ATP, 50 nM SEB, 1 μM TK Substrate-Biotin and 0.8 ng TYK2. Thereafter, the kinase reaction is stopped by adding 4 μl detection mix (final concentrations: 50 mM Hepes buffer pH 7.0, 0.01% BSA, 0.8 M KF, 20 mM EDTA, 42 nM Streptavidin-XL665 and 1:400 STK Ab Cryptate) and the plates are incubated overnight in the dark. The HTRF signal is read using an Envision plate reader.

JAK2 = JAK2 (Homo sapiens (Human), UniProt O60674); assay: JAK kinase assay (HTRF), JAK2; conditions: catalytic domain, ATP at Km (4 μM)
Sequence of JAK2 (O60674 849-1124): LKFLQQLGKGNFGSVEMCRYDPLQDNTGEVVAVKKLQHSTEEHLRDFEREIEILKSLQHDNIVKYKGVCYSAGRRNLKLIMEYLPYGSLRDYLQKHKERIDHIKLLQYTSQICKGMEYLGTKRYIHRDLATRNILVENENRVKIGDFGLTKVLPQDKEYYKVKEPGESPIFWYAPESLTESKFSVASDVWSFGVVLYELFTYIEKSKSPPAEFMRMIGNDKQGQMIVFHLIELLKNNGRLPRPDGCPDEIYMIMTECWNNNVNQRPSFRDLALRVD
Procedure: as §1, §2

TYK2 = TYK2 (Homo sapiens (Human), UniProt P29597); assay: JAK kinase assay (HTRF), TYK2; conditions: catalytic domain, ATP at Km (13 μM)
Sequence of TYK2 (P29597 871-1187): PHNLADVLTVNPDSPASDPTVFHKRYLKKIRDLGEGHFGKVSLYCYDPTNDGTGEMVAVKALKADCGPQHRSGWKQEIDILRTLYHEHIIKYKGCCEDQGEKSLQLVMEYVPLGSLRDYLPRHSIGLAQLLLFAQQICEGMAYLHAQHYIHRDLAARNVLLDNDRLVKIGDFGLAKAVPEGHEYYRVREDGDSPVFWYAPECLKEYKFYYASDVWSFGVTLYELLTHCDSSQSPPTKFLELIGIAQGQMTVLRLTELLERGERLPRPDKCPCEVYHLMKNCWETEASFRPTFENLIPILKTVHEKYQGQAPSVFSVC
Procedure: as §1, §2
(§3) In Table 1 selected JAK kinase inhibitory activities are listed along with analytical tR and observed M+H^+ data (UPLC-MS method 7).

JAK3 = JAK3 (Homo sapiens (Human), UniProt P52333); assay: JAK kinase assay (HTRF), JAK3; conditions: catalytic domain, ATP at Km (2 μM)
Sequence of JAK3 (P52333 822-1111): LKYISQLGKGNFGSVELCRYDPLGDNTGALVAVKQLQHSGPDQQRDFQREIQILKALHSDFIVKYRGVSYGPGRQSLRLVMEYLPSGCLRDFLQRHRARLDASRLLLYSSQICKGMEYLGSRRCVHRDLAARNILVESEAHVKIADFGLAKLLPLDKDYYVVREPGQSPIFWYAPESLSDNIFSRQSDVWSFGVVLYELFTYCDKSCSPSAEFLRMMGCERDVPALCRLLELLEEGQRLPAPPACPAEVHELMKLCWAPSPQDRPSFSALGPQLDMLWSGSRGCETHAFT
Procedure: as §1, §2, §3

Sequence of JAK1 (P23458 850-1154): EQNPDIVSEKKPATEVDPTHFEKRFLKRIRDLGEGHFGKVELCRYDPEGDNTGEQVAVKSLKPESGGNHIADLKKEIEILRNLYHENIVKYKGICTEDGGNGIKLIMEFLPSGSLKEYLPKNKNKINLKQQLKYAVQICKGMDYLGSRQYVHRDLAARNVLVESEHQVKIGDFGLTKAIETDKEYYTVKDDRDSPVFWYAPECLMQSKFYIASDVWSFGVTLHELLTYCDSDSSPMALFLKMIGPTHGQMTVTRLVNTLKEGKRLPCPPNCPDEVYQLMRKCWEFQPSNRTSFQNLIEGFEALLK

Question: C[C@H](NC(=O)C1CCN(c2ncnc3[nH]ccc23)CC12CC2)c1ccccc1 (stereo partly drawn) [Example 99, N-[(1S)-1-phenylethyl]-5-(7H-pyrrolo[2,3-d]pyrimidin-4-yl)-5-azaspiro[2.5]octane-8-carboxamide] was tested. Which pEC50 (JAK1) did it give?
Answer: 8.04

Question: What about the pEC50 (JAK2) of the same compound?
Answer: 7.95

Question: And the pEC50 (TYK2)?
Answer: 6.40

Question: And the pEC50 (JAK3)?
Answer: 7.51

Question: COc1cc(C#N)ccc1CNC(=O)[C@H]1CCN(c2ncnc3[nH]ccc23)CC12CC2 [Example 71, (8S)-N-[(4-cyano-2-methoxy-phenyl)methyl]-5-(7H-pyrrolo[2,3-d]pyrimidin-4-yl)-5-azaspiro[2.5]octane-8-carboxamide] was tested. Which pEC50 (JAK1) did it give?
Answer: 8.24

Question: What about the pEC50 (JAK2) of the same compound?
Answer: 7.85

Question: And the pEC50 (TYK2)?
Answer: 6.92

Question: And the pEC50 (JAK3)?
Answer: 7.20

Question: How did the pEC50 (JAK1) turn out when COc1cc(C#N)ccc1[C@H](CO)NC(=O)[C@H]1CCN(c2ncnc3[nH]ccc23)CC12CC2 [Example 120, (8S)-N-[(1R)-1-(4-cyano-2-methoxy-phenyl)-2-hydroxy-ethyl]-5-(7H-pyrrolo[2,3-d]pyrimidin-4-yl)-5-azaspiro[2.5]octane-8-carboxamide] was run?
Answer: 7.86

Question: And the pEC50 (JAK2)?
Answer: 7.40

Question: And the pEC50 (TYK2)?
Answer: 6.41

Question: What about the pEC50 (JAK3) of the same compound?
Answer: 6.81

Question: Which results are given for O=C(N[C@H](CO)C1CCC1)[C@H]1CCN(c2ncnc3[nH]ccc23)CC12CC2 [Example 147, (8S)-N-[(1S)-1-cyclobutyl-2-hydroxy-ethyl]-5-(7H-pyrrolo[2,3-d]pyrimidin-4-yl)-5-azaspiro[2.5]octane-8-carboxamide]?
Answer: pEC50 (JAK1): 7.17; pEC50 (JAK2): 6.92; pEC50 (TYK2): 6.04; pEC50 (JAK3): 6.79

Question: Which results are given for CCc1cc(C#N)ccc1[C@@H](C)NC(=O)[C@H]1CCN(c2ncnc3[nH]ccc23)CC12CC2 [Example 121, (8S)-N-[(1R)-1-(4-cyano-2-ethyl-phenyl)ethyl]-5-(7H-pyrrolo[2,3-d]pyrimidin-4-yl)-5-azaspiro[2.5]octane-8-carboxamide]?
Answer: pEC50 (JAK1): 7.82; pEC50 (JAK2): 7.35; pEC50 (TYK2): 6.54; pEC50 (JAK3): 6.85

Question: How did the pEC50 (JAK1) turn out when O=C(N[C@@H](CO)C1CCC1)[C@H]1CCN(c2ncnc3[nH]ccc23)CC12CC2 [Example 148, (8S)-N-[(1R)-1-cyclobutyl-2-hydroxy-ethyl]-5-(7H-pyrrolo[2,3-d]pyrimidin-4-yl)-5-azaspiro[2.5]octane-8-carboxamide] was run?
Answer: 7.15

Question: And the pEC50 (JAK2)?
Answer: 6.86

Question: What about the pEC50 (TYK2) of the same compound?
Answer: 5.97

Question: What about the pEC50 (JAK3) of the same compound?
Answer: 6.79

Question: How did the pEC50 (JAK1) turn out when C[C@@H](NC(=O)[C@H]1CCN(c2ncnc3[nH]ccc23)CC12CC2)c1ccc(C#N)cc1F [Example 101, (8S)-N-[(1R)-1-(4-cyano-2-fluoro-phenyl)ethyl]-5-(7H-pyrrolo[2,3-d]pyrimidin-4-yl)-5-azaspiro[2.5]octane-8-carboxamide] was run?
Answer: 8.03

Question: What about the pEC50 (JAK2) of the same compound?
Answer: 7.14

Question: And the pEC50 (TYK2)?
Answer: 6.29

Question: And the pEC50 (JAK3)?
Answer: 6.80

Question: With O=C(N[C@H](CO)c1ccccn1)[C@H]1CCN(c2ncnc3[nH]ccc23)CC12CC2 [Example 135, (8S)-N-[(1S)-2-hydroxy-1-(2-pyridyl)ethyl]-5-(7H-pyrrolo[2,3-d]pyrimidin-4-yl)-5-azaspiro[2.5]octane-8-carboxamide] as the compound, how does the pEC50 (JAK1) read?
Answer: 7.48

Question: What about the pEC50 (JAK2) of the same compound?
Answer: 7.08

Question: What about the pEC50 (TYK2) of the same compound?
Answer: 6.33

Question: What about the pEC50 (JAK3) of the same compound?
Answer: 6.83

Question: With C[C@@H](NC(=O)[C@H]1CCN(c2ncnc3[nH]ccc23)CC12CC2)c1ccc(C#N)c(F)c1 [Example 84, (8S)-N-[(1R)-1-(4-cyano-3-fluoro-phenyl)ethyl]-5-(7H-pyrrolo[2,3-d]pyrimidin-4-yl)-5-azaspiro[2.5]octane-8-carboxamide] as the compound, how does the pEC50 (JAK1) read?
Answer: 8.15

Question: And the pEC50 (JAK2)?
Answer: 7.62

Question: What about the pEC50 (TYK2) of the same compound?
Answer: 6.60

Question: And the pEC50 (JAK3)?
Answer: 7.26

Question: Cc1ccc([C@H](O)[C@H](C)NC(=O)[C@H]2CCN(c3ncnc4[nH]ccc34)CC23CC3)cc1 [Example 73, (8S)-N-[(1S,2S)-2-hydroxy-1-methyl-2-(p-tolyl)ethyl]-5-(7H-pyrrolo[2,3-d]pyrimidin-4-yl)-5-azaspiro[2.5]octane-8-carboxamide] was tested. Which pEC50 (JAK1) did it give?
Answer: 8.21

Question: And the pEC50 (JAK2)?
Answer: 8.08

Question: What about the pEC50 (TYK2) of the same compound?
Answer: 6.77

Question: And the pEC50 (JAK3)?
Answer: 7.51

Question: O=C(NCC1CCC1)C1CCN(c2ncnc3[nH]ccc23)CC12CC2 (stereo not drawn) [Example 115, N-(cyclobutylmethyl)-5-(7H-pyrrolo[2,3-d]pyrimidin-4-yl)-5-azaspiro[2.5]octane-8-carboxamide] was tested. Which pEC50 (JAK1) did it give?
Answer: 7.91

Question: And the pEC50 (JAK2)?
Answer: 7.63

Question: What about the pEC50 (TYK2) of the same compound?
Answer: 6.44

Question: And the pEC50 (JAK3)?
Answer: 7.03

Question: N#CCC1(CNC(=O)C2CCN(c3ncnc4[nH]ccc34)CC23CC3)CC1 (stereo not drawn) [Example 112, N-[[1-(cyanomethyl)cyclopropyl]methyl]-5-(7H-pyrrolo[2,3-d]pyrimidin-4-yl)-5-azaspiro[2.5]octane-8-carboxamide] was tested. Which pEC50 (JAK1) did it give?
Answer: 7.95

Question: What about the pEC50 (JAK2) of the same compound?
Answer: 7.49

Question: What about the pEC50 (TYK2) of the same compound?
Answer: 6.29

Question: And the pEC50 (JAK3)?
Answer: 7.34

Question: How did the pEC50 (JAK1) turn out when N#Cc1ccc([C@H](CO)NC(=O)[C@H]2CCN(c3ncnc4[nH]ccc34)CC23CC3)nc1 [Example 47, (8S)-N-[(1R)-1-(5-cyano-2-pyridyl)-2-hydroxy-ethyl]-5-(7H-pyrrolo[2,3-d]pyrimidin-4-yl)-5-azaspiro[2.5]octane-8-carboxamide] was run?
Answer: 8.51

Question: And the pEC50 (JAK2)?
Answer: 7.86

Question: And the pEC50 (TYK2)?
Answer: 6.75

Question: What about the pEC50 (JAK3) of the same compound?
Answer: 7.49

Question: With Cc1cc([C@@H](O)[C@H](C)NC(=O)[C@H]2CCN(c3ncnc4[nH]ccc34)CC23CC3)ncc1F [Example 133, (8S)-N-[(1S,2S)-2-(5-fluoro-4-methyl-2-pyridyl)-2-hydroxy-1-methyl-ethyl]-5-(7H-pyrrolo[2,3-d]pyrimidin-4-yl)-5-azaspiro[2.5]octane-8-carboxamide] as the compound, how does the pEC50 (JAK1) read?
Answer: 7.56

Question: And the pEC50 (JAK2)?
Answer: 7.43

Question: And the pEC50 (TYK2)?
Answer: 6.43

Question: And the pEC50 (JAK3)?
Answer: 6.83

Question: How did the pEC50 (JAK1) turn out when O=C(N[C@H](CO)Cc1ccccc1)C1CCN(c2ncnc3[nH]ccc23)CC12CC2 (stereo partly drawn) [Example 141, N-[(1S)-1-benzyl-2-hydroxy-ethyl]-5-(7H-pyrrolo[2,3-d]pyrimidin-4-yl)-5-azaspiro[2.5]octane-8-carboxamide] was run?
Answer: 7.39

Question: What about the pEC50 (JAK2) of the same compound?
Answer: 7.09

Question: What about the pEC50 (TYK2) of the same compound?
Answer: 5.38

Question: And the pEC50 (JAK3)?
Answer: 7.28

Question: O=C(NC[C@H](O)c1ccc(F)cn1)[C@H]1CCN(c2ncnc3[nH]ccc23)CC12CC2 [Example 46, (8S)-N-[(2S)-2-(5-fluoro-2-pyridyl)-2-hydroxy-ethyl]-5-(7H-pyrrolo[2,3-d]pyrimidin-4-yl)-5-azaspiro[2.5]octane-8-carboxamide] was tested. Which pEC50 (JAK1) did it give?
Answer: 8.51

Question: What about the pEC50 (JAK2) of the same compound?
Answer: 8.06

Question: And the pEC50 (TYK2)?
Answer: 7.32

Question: What about the pEC50 (JAK3) of the same compound?
Answer: 7.62

Question: Which results are given for N#Cc1ccc(CNC(=O)[C@@H]2CCN(c3ncnc4[nH]ccc34)CC23CC3)cc1 [Example 145, (8R)-N-[(4-cyanophenyl)methyl]-5-(7H-pyrrolo[2,3-d]pyrimidin-4-yl)-5-azaspiro[2.5]octane-8-carboxamide]?
Answer: pEC50 (JAK1): 7.19; pEC50 (JAK2): 6.60; pEC50 (TYK2): 5.24; pEC50 (JAK3): 6.75

Question: What does the source list for O=C(NCCc1ccccc1)C1CCN(c2ncnc3[nH]ccc23)CC12CC2 (stereo not drawn) [Example 114, N-phenethyl-5-(7H-pyrrolo[2,3-d]pyrimidin-4-yl)-5-azaspiro[2.5]octane-8-carboxamide]?
Answer: pEC50 (JAK1): 7.93; pEC50 (JAK2): 7.43; pEC50 (TYK2): 6.07; pEC50 (JAK3): 7.19

Question: With C[C@](CO)(NC(=O)[C@H]1CCN(c2ncnc3[nH]ccc23)CC12CC2)c1ccc(C#N)cn1 [Example 78, (8S)-N-[(1S)-1-(5-cyano-2-pyridyl)-2-hydroxy-1-methyl-ethyl]-5-(7H-pyrrolo[2,3-d]pyrimidin-4-yl)-5-azaspiro[2.5]octane-8-carboxamide] as the compound, how does the pEC50 (JAK1) read?
Answer: 8.20

Question: What about the pEC50 (JAK2) of the same compound?
Answer: 7.77

Question: And the pEC50 (TYK2)?
Answer: 6.64

Question: And the pEC50 (JAK3)?
Answer: 7.40

Question: With O=C(N[C@H](CO)C(=O)OCC1(CO)CCC1)[C@H]1CCN(c2ncnc3[nH]ccc23)CC12CC2 [Example 98, [1-(hydroxymethyl)cyclobutyl]methyl (2R)-3-hydroxy-2-[[(8S)-5-(7H-pyrrolo[2,3-d]pyrimidin-4-yl)-5-azaspiro[2.5]octane-8-carbonyl]amino]propanoate] as the compound, how does the pEC50 (JAK1) read?
Answer: 8.06

Question: And the pEC50 (JAK2)?
Answer: 7.82

Question: And the pEC50 (TYK2)?
Answer: 6.75

Question: And the pEC50 (JAK3)?
Answer: 7.35

Question: O=C(N[C@H](CO)C(=O)OCC1(CO)CC1)[C@H]1CCN(c2ncnc3[nH]ccc23)CC12CC2 [Example 116, [1-(hydroxymethyl)cyclopropyl]methyl (2R)-3-hydroxy-2-[[(8S)-5-(7H-pyrrolo[2,3-d]pyrimidin-4-yl)-5-azaspiro[2.5]octane-8-carbonyl]amino]propanoate] was tested. Which pEC50 (JAK1) did it give?
Answer: 7.91

Question: And the pEC50 (JAK2)?
Answer: 7.61

Question: And the pEC50 (TYK2)?
Answer: 6.68

Question: What about the pEC50 (JAK3) of the same compound?
Answer: 7.32
